Patent publication US8461328B2, “Tricyclic heterocyclic compounds, compositions and methods of use thereof” (Genentech, Inc., priority 2010, dated 2013)

Experiments:
Format in all cases: biochemical
JAK2 = target: T1, JAK2 (Homo sapiens, UniProt O60674); experiment: JAK2 inhibition (Table 4); conditions: read-out: JAK2 Ki
T1 construct: made in house; host or cells: SF9 insect cells (baculovirus)

TYK2 = target: T2, TYK2 (Homo sapiens, UniProt P29597); experiment: TYK2 inhibition (Table 4)
T2 construct: made in house; host or cells: SF9 insect cells (baculovirus)
T2 sequence (P29597 873-1187): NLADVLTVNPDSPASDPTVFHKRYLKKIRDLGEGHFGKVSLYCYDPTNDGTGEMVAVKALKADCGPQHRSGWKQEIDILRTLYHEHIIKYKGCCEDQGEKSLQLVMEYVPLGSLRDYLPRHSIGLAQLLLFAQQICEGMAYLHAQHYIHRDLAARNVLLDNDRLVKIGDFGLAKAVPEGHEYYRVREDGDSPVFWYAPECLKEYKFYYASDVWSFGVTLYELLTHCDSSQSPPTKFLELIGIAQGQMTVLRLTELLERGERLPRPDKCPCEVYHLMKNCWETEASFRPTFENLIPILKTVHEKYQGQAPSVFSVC

JAK1 = target: T3, JAK1 (Homo sapiens, UniProt P23458); experiment: JAK1 inhibition (Table 4); conditions: read-out: JAK1 Ki
T3 construct: made in house; host or cells: SF9 insect cells (baculovirus)

JAK3 = target: T4, JAK3 (Homo sapiens, UniProt P52333); experiment: JAK3 inhibition (Table 4); conditions: read-out: JAK3 Ki
T4 construct: made in house; host or cells: SF9 insect cells (baculovirus)
T4 sequence (P52333 783-1124): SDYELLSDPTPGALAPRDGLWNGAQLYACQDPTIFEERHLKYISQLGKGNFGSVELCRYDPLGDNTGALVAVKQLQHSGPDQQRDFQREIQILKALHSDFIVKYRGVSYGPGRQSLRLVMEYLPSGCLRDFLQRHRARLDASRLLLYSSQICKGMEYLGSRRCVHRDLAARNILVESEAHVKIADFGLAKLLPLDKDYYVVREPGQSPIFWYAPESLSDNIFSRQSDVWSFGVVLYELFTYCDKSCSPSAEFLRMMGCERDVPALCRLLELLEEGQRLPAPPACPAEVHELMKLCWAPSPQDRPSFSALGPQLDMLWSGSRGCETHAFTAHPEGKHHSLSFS

T3 sequence (P23458 852-1154): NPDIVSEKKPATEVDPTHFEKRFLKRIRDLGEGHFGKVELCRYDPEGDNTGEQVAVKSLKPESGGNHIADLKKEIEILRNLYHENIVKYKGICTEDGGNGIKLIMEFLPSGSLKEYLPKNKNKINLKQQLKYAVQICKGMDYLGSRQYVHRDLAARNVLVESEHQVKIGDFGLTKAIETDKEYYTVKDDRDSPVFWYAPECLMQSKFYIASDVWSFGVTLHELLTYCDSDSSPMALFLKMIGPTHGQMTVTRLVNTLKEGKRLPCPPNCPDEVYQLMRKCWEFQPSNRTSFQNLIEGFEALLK
T1 sequence (O60674 812-1132): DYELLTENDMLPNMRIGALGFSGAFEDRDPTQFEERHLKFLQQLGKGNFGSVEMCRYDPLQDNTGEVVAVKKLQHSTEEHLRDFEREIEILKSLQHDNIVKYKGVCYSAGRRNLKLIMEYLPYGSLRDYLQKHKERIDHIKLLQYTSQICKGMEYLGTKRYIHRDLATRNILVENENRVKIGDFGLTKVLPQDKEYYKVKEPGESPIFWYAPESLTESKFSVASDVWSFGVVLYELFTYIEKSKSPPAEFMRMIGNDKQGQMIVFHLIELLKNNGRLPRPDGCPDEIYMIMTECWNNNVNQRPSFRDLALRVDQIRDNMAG

Row | Structure (SMILES) | Ki (JAK2) [nM] | Ki (TYK2) [nM] | Ki (JAK1) [nM] | Ki (JAK3) [nM]
1 | CC(O)c1nc2cnc3[nH]ccc3c2n1C1CCN(Cc2ccnc(C#N)c2)CC1 (racemic) [Example 350, 4-{4-[2-(1-Hydroxy-ethyl)-6H-1,3,5,6-tetraaza-as-indacen-1-yl]-piperidin-1-ylmethyl}-pyridine-2-carbonitrile] | 50.4 | 269 | 6.44 | 178
2 | OCc1nc2cnc3[nH]ccc3c2n1C1CCNCC1(F)F (racemic) [Example 948, [1-(3,3-Difluoro-piperidin-4-yl)-1,6-dihydro-1,3,5,6-tetraaza-as-indacen-2-yl]-methanol] | 13.6 | 7.32 | 1.23 | 5.95
3 | CC(C)C(=O)N1CC(c2nc3cnc4[nH]ccc4c3n2C2CCN(CCC#N)CC2)C1 [Example 389, 3-{4-[2-(1-Isobutyryl-azetidin-3-yl)-6H-1,3,5,6-tetraaza-as-indacen-1-yl]-piperidin-1-yl}-propionitrile] | 34.3 | 181 | 11.1 | 48.3
4 | O=S(=O)(c1ccccc1)N1CC[C@@H](n2cnc3cnc4[nH]ccc4c32)C1 [Example 432, 1-((R)-1-Benzenesulfonyl-pyrrolidin-3-yl)-1,6-dihydro-1,3,5,6-tetraaza-as-indacene] | 17.9 | 73.2 | 19.7 | 1280
5 | Cc1nc2cnc3[nH]ccc3c2n1C1CCC(NC(=O)CC(F)(F)F)C1 (racemic) [Example 730, 3,3,3-Trifluoro-N-[3-(2-methyl-6H-1,3,5,6-tetraaza-as-indacen-1-yl)-cyclopentyl]-propionamide] | 7.24 | 21.1 | 1.49 | 1.87
6 | O=C(Cc1nc2cnc3[nH]ccc3c2n1C1CCN(Cc2ccccc2)CC1)N1CCC(F)(F)CC1 [Example 217, 2-[1-(1-Benzyl-piperidin-4-yl)-1,6-dihydro-1,3,5,6-tetraaza-as-indacen-2-yl)-1-(4,4-difluoro-piperidin-1-yl)-ethanone] | 48.7 | 608 | 3.6 | 6.79
7 | CC(C)S(=O)(=O)NCc1nc2cnc3[nH]ccc3c2n1C1CCN(CCC#N)CC1 [Example 495, Propane-2-sulfonic acid {1-[1-(2-cyano-ethyl)-piperidin-4-yl]-1,6-dihydro-1,3,5,6-tetraaza-as-indacen-2-ylmethyl}-amide] | 106 | 415 | 16.2 | 97.7
8 | CS(=O)(=O)N1CCC(n2nnc3cnc4[nH]ccc4c32)CC1 [Example 233, 1-(1-Methanesulfonyl-piperidin-4-yl)-1,6-dihydro-1,2,3,5,6-pentaaza-as-indacene] | 7.84 | 77.1 | 4.96 | 250
9 | O=C([C@@H]1CC(F)(F)CN1)N1CCC(n2cnc3cnc4[nH]ccc4c32)CC1 [Example 250, ((S)-4,4-Difluoro-pyrrolidin-2-yl)-[4-(6H-1,3,5,6-tetraaza-as-indacen-1-yl)-piperidin-1-yl]-methanone] | 64.7 | 300 | 29 | 336
10 | OC[C@H]1CC[C@H](n2cnc3cnc4[nH]ccc4c32)CC1 [Example 631, trans [4-(6H-1,2,3,5,6-Tetraaza-as-indacen-1-yl)-cyclohexyl]-methanol] | 2.57 | 6.79 | 0.85 | 19.3
11 | OCc1nc2cnc3[nH]ccc3c2n1C1CCN(CCF)CC1 [Example 508, {1-[1-(2-Fluoro-ethyl)-piperidin-4-yl]-1,6-dihydro-1,3,5,6-tetraaza-as-indacen-2-yl}-methanol] | 10.3 | 10.2 | 2.14 | 23.2
12 | CC(C)OCc1nc2cnc3[nH]ccc3c2n1C1CCN(CCC#N)CC1 [Example 842, 3-[4-(2-Isopropoxymethyl-6H-1,3,5,6-tetraaza-as-indacen-1-yl)-piperidin-1-yl]-propionitrile] | 171 | 905 | 81 | 236
13 | CCOC(=O)N1CCC(n2c([C@@H](C)O)nc3cnc4[nH]ccc4c32)CC1 [Example 927] | 613 | 711 | 176 | 383
14 | O=C(c1cccnc1)N1CCC[C@@H](n2cnc3cnc4[nH]ccc4c32)C1 [Example 31, Pyridin-3-yl-[(R)-3-(6H-1,3,5,6-tetraaza-as-indacen-1-yl)-piperidin-1-yl]methanone] | 25.9 | 159 | 13.2 | 419
15 | C[C@@H](O)c1nc2cnc3[nH]cc(Br)c3c2n1C1CCC(CC#N)CC1 (stereo partly drawn) [Example 1010, {4-[8-Bromo-2-((R)-1-hydroxy-ethyl)-6H-1,3,5,6-tetraaza-as-indacen-1-yl]-cyclohexyl}-acetonitrile] | 1.66 | 2.2 | 1.12 | 0.33
16 | c1cnc(N2CCC(n3cnc4cnc5[nH]ccc5c43)CC2)nc1 [Example 64, 1-(1-Pyrimidin-2-yl-piperidin-4-yl)-1,6-dihydro-1,3,5,6-tetraaza-as-indacene] | 51.4 | 495 | 36.4 | 243
17 | CCC(C)S(=O)(=O)NCc1nc2cnc3[nH]ccc3c2n1C1CCN(CCC#N)CC1 (racemic) [Example 502, Butane-2-sulfonic acid {1-[1-(2-cyano-ethyl)-piperidin-4-yl]-1,6-dihydro-1,3,5,6-tetraaza-as-indacen-2-ylmethyl}-amide] | 90.6 | 417 | 15.2 | 105
18 | CS(=O)(=O)N1CCC(n2c(CC3CCCC3)nc3cnc4[nH]ccc4c32)CC1 [Example 115, 2-Cyclopentylmethyl-1-(1-methanesulfonyl-piperidin-4-yl)-1,6-dihydro-1,2,3,5,6-tetraaza-as-indacene] | 744 | 153 | 320 | 547
19 | COCCNC(=O)N(C)[C@H]1CC[C@H](n2cnc3cnc4[nH]ccc4c32)CC1 [Example 592, Trans 3-(2-Methoxy-ethyl)-1-methyl-1-[4-(6H-1,2,3,5,6-tetraaza-as-indacen-1-yl)-cyclohexyl]-urea] | 15.5 | 215 | 12 | 344
20 | CC1(n2nnc3cnc4[nH]ccc4c32)CCN(S(C)(=O)=O)CC1 [Example 583, 1-(1-Methanesulfonyl-4-methyl-piperidine-4-yl)-1,6-dihydro-1,2,3,5,6-pentaaza-as-indacen-1-yl] | 31.9 | 173 | 4.36 | 363
21 | N#CCCN1CCC(n2c(CCNC(=O)c3ccccc3)nc3cnc4[nH]ccc4c32)CC1 [Example 380, N-(2-{1-[1-(2-Cyano-ethyl)-piperidin-4-yl]-1,6-dihydro-1,3,5,6-tetraaza-as-indacen-2-yl}-ethyl)-benzamide] | 36 | 142 | 3.98 | 62.6
22 | CNc1nc2cnc3[nH]ccc3c2n1C1CCN(CCC#N)CC1 [Example 771, 3-[4-(2-Methylamino-6H-1,3,5,6 tetraaza-asindacen-1-yl)-piperidin-1-yl]-propionitrile] | 6.62 | 27.8 | 2.06 | 19.1
